From patent US5593966A, “Peptide derivatives of cytochrome b558 and their use as medicaments” (The United States of America as represented by the …, priority 1990, dated 1997)
Where a SMILES comes first, the peptide text is derived from it.

Legend:
NADPH oxidase [1] = target: T1, NADPH oxidase (Homo sapiens, UniProt P14598); assay: Cell-free NADPH oxidase assay (arachidonate-stimulated O2 generation, neutrophil membrane plus cytosol); type: biochemical; conditions: for Mean inhibition vs. buffer control (n), Cell-free assay: 100 μM synthetic peptide, arachidonate-stimulated O2 production, mean of n experiments in duplicate
T1 construct: Neutrophils were electropermeabilized as described; endogenous in cells; host or cells: electropermeabilized peripheral blood neutrophils (PMN), stimulated with PMA or fMLP
T1 sequence (P14598 1-390): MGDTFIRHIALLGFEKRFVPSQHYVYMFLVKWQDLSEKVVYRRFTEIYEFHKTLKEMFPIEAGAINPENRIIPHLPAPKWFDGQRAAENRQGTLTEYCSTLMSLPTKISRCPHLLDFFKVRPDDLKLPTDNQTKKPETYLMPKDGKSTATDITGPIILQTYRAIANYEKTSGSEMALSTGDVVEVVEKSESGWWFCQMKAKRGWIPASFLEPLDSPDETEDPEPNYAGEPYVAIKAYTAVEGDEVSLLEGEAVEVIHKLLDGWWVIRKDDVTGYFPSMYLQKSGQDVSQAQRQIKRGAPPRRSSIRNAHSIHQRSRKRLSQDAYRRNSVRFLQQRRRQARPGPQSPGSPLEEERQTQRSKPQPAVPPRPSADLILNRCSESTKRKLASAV
Experimental: Neutrophils were isolated from peripheral blood and cytosol and membrane fractions were prepared by differential centrifugation as previously described (Nunoi et al, Science, 242, 1298-1301 (1988)). Typical yields of cytosol and membrane proteins obtained were 2.8±0.1 mg/10^8 cell equivalents and 1.5±0.1 μg/10^6 cell equivalents, respectively (mean±SD, 3 separate preparations). The cell-free assay of O2 generation was modified as follows: wells contained 2.5-5.0×10^5cell equivalents neutrophil membrane, 10^6 cell equivalents neutrophil cytosol in a final volume of 100 μl reaction mixture (150 μM acetylated ferricytochrome c (11), 4 mM MgCl2, 10 μM FAD, 1 mM EGTA, 200 μM NADPH, 40 μM arachidonic acid, 10 μM GTPγ S, ±25 μg/ml superoxide dismutase in 75 mM potassium phosphate, pH 7.0). Because membrane preparations varied in activity, the amount of membrane added per well was adjusted to yield an arachidonate-stimulated O2 production of ≈0.4 nmol/min/well in the absence of synthetic peptide. The maximal linear rate of superoxide dismutase-inhibitable acetylferricytochrome c reduction (ΔO.D. […]) was converted to nmol O2 generated/min using an instrument-corrected extinction coefficient derived empirically as described (Leslie, J. Immunol. Methods, 103, 253-259 (1987)). To measure oxidase inhibition by antibodies directed against the 91 kDa subunit of cytochrome b558 membranes were solubilized in 1% deoxycholate, incubated for 30 min on ice with an equal volume of serum at various dilutions. Diluting these samples 10-fold with H2 O lowered the detergent concentration below the CMC and allowed sedimentation (130,000 g×30 min) of an oxidase-competent membrane fraction. This fraction was resolubilized in deoxycholate, and assayed for arachidonate-stimulatedO2 generation in the presence of cytosol.
In Table 1 above, the cell-free assay of O2 generation contained 2.5-5.0×10^5 cell equivalents of neutrophil (PMN) membrane, 10^6 cell equivalents PMN cytosol in a final volume of 100 μl reaction mixture. Because membrane preparations varied in activity, the amount of membrane added per well was adjusted to yield an arachidonate-stimulated O2 production of ≈0.4 nmol/min/well in the absence of synthetic peptide. Data represent the mean percent inhibition obtained in n experiments (each performed in duplicate) in the presence of 100 μM synthetic peptide compared to a simultaneous buffer control.

[2] = target: T2, 47 kDa cytosolic oxidase factor (Homo sapiens, UniProt P14598); assay: 47 kDa cytosolic protein phosphorylation in the cell-free reaction (immunoprecipitation, SDS-PAGE, autoradiography); type: biochemical; conditions: densitometry of autoradiograms; 3 independent experiments; read-out: Half-maximal inhibitory concentration, 47 kDa protein phosphorylation
T2 construct: endogenous in cells; host or cells: neutrophil cytosol, with neutrophil membrane, in the cell-free reaction
T2 sequence (P14598 1-390): T1 sequence (P14598 1-390)
Experimental: Components of the cell-free phosphorylation reaction were identical to those for arachidonate-stimulated O2^- generation except for omission of acetylferricytochrome c and inclusion of γ-[^32 P]ATP (0.1 μCi/ml, sp. act. 5000 Ci/mmol). Twenty min after addition of arachidonate, aliquots of the cell-free reaction mixture were mixed with an equal volume of iced "stopping" buffer (150 mM NaCl, 10 mM EDTA, 1% deoxycholate, 1% NP-40, 50 mMNaF, 1 mMNa vanadate, 10 mM Tris, pH 7.4). Proteins bound to rabbit antibodies raised against recombinant 47 kDa protein (Lomax et al, Science, 245, 409-412 (1989)), were precipitated with protein G-sepharose (Harlow et al, Antibodies: A Laboratory Manual (Cold Spring Harbor Laboratory), 465-468 (1988)) and analyzed by SDS-PAGE and autoradiography with intensifying screens.
After stimulation of the neutrophil respiratory burst with phorbol esters the 47 kDa cytosolic oxidase factor is multiply phosphorylated and associates with plasma membrane. […] The immunoprecipitated proteins were analyzed by SDS-PAGE and autoradiography as described above. […] The half-maximal inhibitory concentration of 91 kDa cytochrome b558 carboxyterminal peptide determined by densitometry of autoradiograms was in the range of 25-50 μM in each of 3 independent experiments.

NADPH oxidase [3] = target: T1, NADPH oxidase; assay: Permeabilized cell NADPH oxidase assay (electropermeabilized neutrophils stimulated with PMA or fMLP); type: cell-based; conditions: for Mean inhibition vs. buffer control (n), Electropermeabilized cell, PMA: PMA 10 ng/ml; for Mean inhibition vs. buffer control (n), Electropermeabilized cell, PMA / Mean inhibition vs. buffer control (n), Electropermeabilized cell, FMLP: preincubation with 800 μM peptide, assay with 200 μM peptide; for Mean inhibition vs. buffer control (n), Electropermeabilized cell, FMLP: fMLP 10 μM
Experimental: Neutrophils were electropermeabilized as described (Grinstein et al, J. Biol. Chem., 263, 1779-1783 (1988)), incubated on ice for 30 min in permeabilization buffer (140 mM KCl, 1 mM MgCl2, 1 mM EGTA, 0.193 mM CaCl2, 1 mM ATP, 2 mM NADPH, 10 μM GTP, 10 mM glucose, 10 mM HEPES-N-methylglucamine, pH 7) supplemented with synthetic peptide (800 μM). The cells were resuspended at 5×10^6 /ml in the same buffer containing 200 μM synthetic peptide, 150 μM acetylferricytochrome c, catalase (2500 U/ml), ±25 μg/ml superoxide dismutase. Wells containing 5×10^5 cells were stimulated with PMA (10 ng/ml) or fMLP (10 μM) and O2^-- production was determined as above.
Electropermeabilized PMN were incubated on ice in permeabilization buffer supplemented with synthetic peptide (800 μM). The cells were resuspended at 5×10^6 /ml in the same buffer containing 200 μM synthetic peptide. Wells containing 5×10^5 cells were stimulated with PMA (10 ng/ml) or fMLP (10 μM) and O2 production was determined as described in "Experimental Procedures". […] Electropermeabilized PMN sham incubated without synthetic peptides and stimulated with […] or fMLP generated 8.4±1.1 nmol O2 /min/10^6 cells and 8.9±1.7 nmol O2 /min/10^6 cells, respectively (mean±SEM, 5 independent experiments).

IC50 (NADPH oxidase [1]; peptide and arachidonate added simultaneously, 5 experiments, IC50 by interpolation, read-out: Mean IC50 ±SEM, inhibition of NADPH oxidase activation) [µM] | IC50 [2] [µM] | Mean inhibition vs. buffer control (n), Cell-free assay (NADPH oxidase [1]) [%] | Mean inhibition vs. buffer control (n), Electropermeabilized cell, PMA (NADPH oxidase [3]) [%] | Mean inhibition vs. buffer control (n), Electropermeabilized cell, FMLP (NADPH oxidase [3]) [%] | Inhibition of O2 production by electropermeabilized neutrophils (in words) (NADPH oxidase [3]; stimulated with fMLP or PMA) | Molecule
32 ± 2 | 25 to 50 | – | – | – | – | CC[C@H](C)[C@H](NC(=O)[C@H](Cc1ccccc1)NC(=O)[C@H](Cc1c[nH]cn1)NC(=O)[C@@H](NC(=O)CNC(=O)[C@H](CCCNC(=N)N)NC(=O)[C@@H]1CCCN1C(=O)CNC(=O)[C@H](CO)NC(=O)[C@H](CCC(=O)O)NC(=O)[C@H](CO)NC(=O)[C@H](CC(N)=O)NC(=O)[C@H](CO)NC(=O)[C@@H](N)CS)C(C)C)C(=O)N[C@@H](Cc1ccccc1)C(=O)N[C@@H](CC(N)=O)C(=O)N[C@@H](CCCCN)C(=O)N[C@@H](CCC(=O)O)C(=O)N[C@@H](CC(N)=O)C(=O)N[C@@H](Cc1ccccc1)C(=O)O (H-CSNSESGPRGVHFIFNKENF-OH)
– | – | 10 | 3 | -5 | – | CSCC[C@H](NC(=O)[C@H](CO)NC(=O)[C@H](Cc1ccccc1)NC(=O)[C@@H](N)C(C)C)C(=O)N[C@@H](Cc1ccccc1)C(=O)N[C@@H](CCC(N)=O)C(=O)NCC(=O)N[C@@H](CCC(=O)O)C(=O)N[C@@H](CCC(=O)O)C(=O)N[C@@H](CO)C(=O)O [VFSMFQGEES] (H-VFSMFQGEES-OH)
– | – | 93 | 61 | 67 | inhibited | RGVHFIFNKENF [Residues 559-570 of the 91 kDa subunit of cytochrome b558]
– | – | -17 | – | – | – | CC(C)[C@H](NC(=O)[C@H](C)NC(=O)[C@H](Cc1c[nH]c2ccccc12)NC(=O)[C@H](CC(N)=O)NC(=O)CN)C(=O)N[C@@H](CC(N)=O)C(=O)N[C@@H](CCC(=O)O)C(=O)NCC(=O)N[C@@H](CS)C(=O)O [GNWAVNEGC] (H-GNWAVNEGC-OH)
– | – | 96 | – | – | – | CC[C@H](C)[C@H](NC(=O)[C@H](Cc1ccccc1)NC(=O)[C@H](Cc1c[nH]cn1)NC(=O)[C@@H](NC(=O)CNC(=O)[C@H](CCCNC(=N)N)NC(=O)[C@@H]1CCCN1C(=O)CNC(=O)[C@H](CO)NC(=O)[C@H](CCC(=O)O)NC(=O)[C@H](CO)NC(=O)[C@H](CC(N)=O)NC(=O)[C@@H](N)CO)C(C)C)C(=O)N[C@@H](Cc1ccccc1)C(=O)N[C@@H](CC(N)=O)C(=O)N[C@@H](CCCCN)C(=O)N[C@@H](CCC(=O)O)C(=O)N[C@@H](CC(N)=O)C(=O)N[C@@H](Cc1ccccc1)C(=O)O [SNSESGPRGVHFIFNKENF] (H-SNSESGPRGVHFIFNKENF-OH)
– | – | -17 | -6 | 6 | – | CC(C)C[C@H](NC(=O)[C@@H](N)Cc1c[nH]cn1)C(=O)N[C@@H](Cc1ccccc1)C(=O)N[C@@H](CC(N)=O)C(=O)N[C@H](C(=O)N[C@@H](CCC(=O)O)C(=O)N[C@@H](Cc1c[nH]c2ccccc12)C(=O)N[C@@H](CS)C(=O)O)C(C)C [HLFNVEWC] (H-HLFNVEWC-OH)
– | – | -5 | -11 | -28 | – | CC[C@H](C)[C@H](NC(=O)[C@@H](NC(=O)[C@H](C)NC(=O)[C@H](CCC(N)=O)NC(=O)[C@H](Cc1ccccc1)NC(=O)CNC(=O)[C@H](C)NC(=O)[C@H](Cc1c[nH]cn1)NC(=O)[C@H](C)NC(=O)[C@H](CCCNC(=N)N)NC(=O)[C@H](CCCCN)NC(=O)[C@@H](N)CCCNC(=N)N)[C@@H](C)O)C(=O)O [RKRAHAGFQATI] (H-RKRAHAGFQATI-OH)
– | – | -8 | -1 | 2 | – | NC(=O)C[C@H](NC(=O)[C@@H](N)CO)C(=O)N[C@@H](CO)C(=O)N[C@@H](CCC(=O)O)C(=O)N[C@@H](CO)C(=O)NCC(=O)N1CCC[C@H]1C(=O)O [SNSESGP] (H-SNSESGP-OH)
– | – | 97 | 72 | 73 | – | CC[C@H](C)[C@H](NC(=O)[C@H](Cc1ccccc1)NC(=O)[C@H](Cc1c[nH]cn1)NC(=O)[C@@H](NC(=O)CNC(=O)[C@@H](N)CCCNC(=N)N)C(C)C)C(=O)N[C@@H](Cc1ccccc1)C(=O)O [RGVHFIF, Arg--Gly--Val--His--Phe--Ile--Phe] (H-RGVHFIF-OH)

Molecule | IC50 (NADPH oxidase [1]; peptide and arachidonate added simultaneously, 5 experiments, IC50 by interpolation, read-out: Mean IC50 ±SEM, inhibition of NADPH oxidase activation) [µM] | IC50 [2] [µM] | Mean inhibition vs. buffer control (n), Cell-free assay (NADPH oxidase [1]) [%] | Mean inhibition vs. buffer control (n), Electropermeabilized cell, PMA (NADPH oxidase [3]) [%] | Mean inhibition vs. buffer control (n), Electropermeabilized cell, FMLP (NADPH oxidase [3]) [%] | Inhibition of O2 production by electropermeabilized neutrophils (in words) (NADPH oxidase [3]; stimulated with fMLP or PMA)
NC(N)=NCCC[C@H](NC(=O)[C@H](Cc1ccccc1)NC(=O)[C@@H]1CCCN1C(=O)[C@H](CO)NC(=O)[C@H](Cc1ccccc1)NC(=O)CNC(=O)[C@@H]1CCCN1C(=O)[C@@H]1CCCN1C(=O)[C@@H](N)CCCN=C(N)N)C(=O)O [Bradykinin] (H-RPPGFSPFR-OH) | – | – | -8 | -8 | -6 | –
